PubChem BioAssay (NCI)
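How tested: cells in 96-well plates exposed to compound for 48 hours at five concentrations. TGI: total growth inhibition.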

Legend:
Assay in all cases: inhibition of tumour cell growth, NCI panel, 48 h
[1] = tested on: SW-620 colon
[2] = tested on: OVCAR-4 ovarian
[3] = tested on: MALME-3M melanoma
[4] = tested on: DU-145 prostate
[5] = tested on: HT29 colon
[6] = tested on: NCI-H522 lung
[7] = tested on: MDA-N
[8] = tested on: SF-539 CNS
[9] = tested on: A498 renal
[10] = tested on: SNB-19 CNS
[11] = tested on: T-47D breast
[12] = tested on: HCC-2998 colon
[13] = tested on: SK-MEL-28 melanoma
[14] = tested on: UO-31 renal
[15] = tested on: SR leukemia
[16] = tested on: NCI-H23 lung
[17] = tested on: A549 NSCLC
[18] = tested on: RPMI-8226 leukemia
[19] = tested on: OVCAR-3 ovarian
[20] = tested on: HCT-116 colon
[21] = tested on: CAKI-1 renal
[22] = tested on: HS 578T breast
[23] = tested on: HCT-15 colon
[24] = tested on: OVCAR-5 ovarian
[25] = tested on: MCF7 breast
[26] = tested on: M14 melanoma
[27] = tested on: NCI-H226 lung
[28] = tested on: CCRF-CEM leukemia
[29] = tested on: MOLT-4 leukemia
[30] = tested on: SF-295 CNS
[31] = tested on: U251 CNS
[32] = tested on: BT-549 breast
[33] = tested on: LOX IMVI melanoma
[34] = tested on: 786-0 renal
[35] = tested on: NCI/ADR-RES ovarian
[36] = tested on: NCI-H460 lung
[37] = tested on: K-562 leukemia
[38] = tested on: MDA-MB-231 breast
[39] = tested on: OVCAR-8 ovarian
[40] = tested on: UACC-257 melanoma
[41] = tested on: SK-MEL-5 melanoma
[42] = tested on: UACC-62 melanoma
[43] = tested on: ACHN renal
[44] = tested on: MDA-MB-435
[45] = tested on: HL-60(TB) leukemia
[46] = tested on: SK-OV-3 ovarian
[47] = tested on: SN12C renal
[48] = tested on: COLO 205 colon
[49] = tested on: SF-268 CNS
[50] = tested on: PC-3 prostate
[51] = tested on: HOP-92 NSCLC
[52] = tested on: SK-MEL-2 melanoma
[53] = tested on: RXF 393 renal
[54] = tested on: IGROV1 ovarian
[55] = tested on: EKVX NSCLC
[56] = tested on: SNB-75 CNS
[57] = tested on: TK-10 renal
[58] = tested on: HOP-62 NSCLC
[59] = tested on: KM12 colon

With `CSc1ccc(Nc2cc(=O)[nH]c(=O)[nH]2)cc1` the TGI [1] was greater than 100 µM, the TGI [2] was greater than 100 µM and the TGI [3] was greater than 100 µM. For the same molecule, the TGI [4] was greater than 100 µM, the TGI [5] was greater than 100 µM and the TGI [6] was greater than 100 µM. For the same molecule, the TGI [7] was greater than 100 µM, the TGI [8] was greater than 100 µM and the TGI [9] was greater than 100 µM. It also gave a TGI [10] greater than 100 µM, a TGI [11] greater than 100 µM and a TGI [12] greater than 100 µM. The TGI [13] was greater than 100 µM, the TGI [14] was greater than 100 µM and the TGI [15] was greater than 100 µM. For the same molecule, the TGI [16] was greater than 100 µM, the TGI [17] was greater than 100 µM and the TGI [18] was greater than 100 µM. For the same molecule, the TGI [19] was greater than 100 µM, the TGI [20] was greater than 100 µM and the TGI [21] was greater than 100 µM. For the same molecule, the TGI [22] was greater than 100 µM, the TGI [23] was greater than 100 µM and the TGI [24] was greater than 100 µM. It also gave a TGI [25] greater than 100 µM, a TGI [26] greater than 100 µM and a TGI [27] greater than 100 µM. The TGI [28] was greater than 100 µM, the TGI [29] was greater than 100 µM and the TGI [30] was greater than 100 µM. For the same molecule, the TGI [31] was greater than 100 µM, the TGI [32] was greater than 100 µM and the TGI [33] was greater than 100 µM. The TGI [34] was greater than 100 µM, the TGI [35] was greater than 100 µM and the TGI [36] was greater than 100 µM. It also gave a TGI [37] greater than 100 µM, a TGI [38] greater than 100 µM and a TGI [39] greater than 100 µM. It also gave a TGI [40] greater than 100 µM, a TGI [41] greater than 100 µM and a TGI [42] greater than 100 µM. For the same molecule, the TGI [43] was greater than 100 µM, the TGI [44] was greater than 100 µM and the TGI [45] was greater than 100 µM. It also gave a TGI [46] greater than 100 µM, a TGI [47] greater than 100 µM and a TGI [48] greater than 100 µM. The TGI [49] was greater than 100 µM, the TGI [50] was greater than 100 µM and the TGI [51] was greater than 100 µM. For the same molecule, the TGI [52] was greater than 100 µM.
`COc1cccc(C2c3cc4c(cc3OC(NNS(=O)(=O)c3ccc(C)cc3)C2C)OCO4)c1OC` (configuration not stated) showed a TGI [1] greater than 100 µM, a TGI [3] of 49.9 µM and a TGI [4] of 7.61 µM. The TGI [5] was 13.9 µM, the TGI [6] was 8.61 µM and the TGI [53] was 21.6 µM. It also gave a TGI [7] greater than 100 µM, a TGI [8] of 11.9 µM and a TGI [9] of 6.42 µM. The TGI [10] was 86.6 µM, the TGI [11] was greater than 100 µM and the TGI [12] was greater than 100 µM. For the same molecule, the TGI [13] was greater than 100 µM, the TGI [14] was 52.8 µM and the TGI [54] was 15.3 µM. It also gave a TGI [15] of 3.29 µM, a TGI [16] greater than 100 µM and a TGI [17] of 11.4 µM. It also gave a TGI [18] of 6.86 µM, a TGI [19] of 4.55 µM and a TGI [20] of 4.56 µM. It also gave a TGI [21] of 8.56 µM, a TGI [22] of 21.1 µM and a TGI [23] of 9.82 µM. It also gave a TGI [24] of 74.2 µM, a TGI [25] of 79.5 µM and a TGI [26] greater than 100 µM. The TGI [27] was 13.1 µM, the TGI [28] was 5.31 µM and the TGI [29] was 9.02 µM. For the same molecule, the TGI [55] was greater than 100 µM, the TGI [30] was greater than 100 µM and the TGI [31] was 16.9 µM. For the same molecule, the TGI [32] was 36 µM, the TGI [33] was 5.15 µM and the TGI [34] was 68.3 µM. It also gave a TGI [56] of 60.5 µM, a TGI [36] of 8.64 µM and a TGI [37] of 6.79 µM. It also gave a TGI [38] of 27.6 µM, a TGI [39] greater than 100 µM and a TGI [40] greater than 100 µM. It also gave a TGI [41] of 19 µM, a TGI [42] of 33.2 µM and a TGI [57] of 49.8 µM. For the same molecule, the TGI [58] was 9.06 µM, the TGI [43] was 9.85 µM and the TGI [59] was 13.5 µM. For the same molecule, the TGI [44] was greater than 100 µM, the TGI [45] was 3.28 µM and the TGI [46] was 7.83 µM. It also gave a TGI [47] of 35.3 µM, a TGI [48] of 3.79 µM and a TGI [49] greater than 100 µM. For the same molecule, the TGI [50] was 92.4 µM, the TGI [51] was 7.18 µM and the TGI [52] was 7.18 µM.
Molecule `COC(C)(C)/C=C/c1[nH]c2ccccc2c1CC(=O)NCCc1cn(C(c2ccccc2)(c2ccccc2)c2ccccc2)cn1` has a TGI [1] greater than 100 µM, a TGI [2] greater than 100 µM and a TGI [3] of 11.7 µM. For the same molecule, the TGI [4] was greater than 89.3 µM, the TGI [5] was greater than 21.5 µM and the TGI [6] was 14.3 µM. The TGI [53] was greater than 100 µM, the TGI [7] was 19.9 µM and the TGI [8] was 14.1 µM. For the same molecule, the TGI [9] was 12.9 µM, the TGI [10] was greater than 100 µM and the TGI [11] was greater than 21.9 µM. For the same molecule, the TGI [12] was 2.95 µM, the TGI [13] was 29.8 µM and the TGI [14] was 61.8 µM. It also gave a TGI [54] greater than 100 µM, a TGI [15] of 5.8 µM and a TGI [16] of 22.9 µM. The TGI [17] was greater than 100 µM, the TGI [18] was 6.77 µM and the TGI [19] was greater than 29.2 µM. It also gave a TGI [20] of 14.8 µM, a TGI [21] greater than 100 µM and a TGI [22] of 60.2 µM. The TGI [23] was greater than 100 µM, the TGI [24] was greater than 30.5 µM and the TGI [25] was 15.5 µM. It also gave a TGI [26] of 17.3 µM, a TGI [27] of 10.9 µM and a TGI [28] greater than 100 µM. It also gave a TGI [29] of 6.21 µM, a TGI [55] greater than 100 µM and a TGI [30] greater than 31.3 µM. The TGI [31] was 16.5 µM, the TGI [32] was greater than 75.7 µM and the TGI [33] was greater than 51.3 µM. For the same molecule, the TGI [34] was 17.1 µM, the TGI [35] was greater than 100 µM and the TGI [36] was greater than 23.5 µM. The TGI [37] was greater than 36 µM, the TGI [38] was 15 µM and the TGI [39] was greater than 100 µM. It also gave a TGI [40] of 24.9 µM, a TGI [41] of 7.36 µM and a TGI [42] of 21.3 µM. It also gave a TGI [57] greater than 40.5 µM, a TGI [58] of 34.4 µM and a TGI [43] greater than 100 µM. For the same molecule, the TGI [59] was greater than 87.3 µM, the TGI [44] was 22.3 µM and the TGI [45] was 8.88 µM. It also gave a TGI [46] greater than 34.9 µM, a TGI [47] of 19.2 µM and a TGI [48] of 3.85 µM. For the same molecule, the TGI [49] was greater than 100 µM, the TGI [50] was 10.6 µM and the TGI [51] was greater than 28.3 µM. For the same molecule, the TGI [52] was 6.45 µM.
